Laboratory results as given in US10245330B2, “Compositions and methods for imaging” (The Regents of the University of California, priority 2010, dated 2019).

Experiment: Solubility in water
Type: physicochemical
Protocol: ^13C-BFA has suitable properties for polarization by DNP in that it is soluble forming >5 M solutions in water and readily forms a glass upon flash freezing. A 5 M solution of ^13C-BFA in water was prepared with 15 mM OXO63 radical and polarized by DNP by irradiating at 90940 MHz. A buildup time constant of 830 s provided ˜5% polarization (5450-fold enhancement factor) after 45 minutes. The spectroscopic detection of H2O2 of the probe was accomplished by rapidly dissolving polarized samples of ^13C-BFA in 100 mM phosphate buffer at pH 7.8 to a final concentration of 5 mM, followed by reaction with various concentrations of hydrogen peroxide.

For `O=C(c1ccccc1)[13C](=O)O` [^13C-BFA, ^13C-benzoylformic acid], the “solubility (solutions in water)” value was > 5000 mM.
